In assay [1] the target is T1, Orexin/Hypocretin receptor type 1 (Homo sapiens, UniProt O43613).
T1 sequence (O43613 whole entry): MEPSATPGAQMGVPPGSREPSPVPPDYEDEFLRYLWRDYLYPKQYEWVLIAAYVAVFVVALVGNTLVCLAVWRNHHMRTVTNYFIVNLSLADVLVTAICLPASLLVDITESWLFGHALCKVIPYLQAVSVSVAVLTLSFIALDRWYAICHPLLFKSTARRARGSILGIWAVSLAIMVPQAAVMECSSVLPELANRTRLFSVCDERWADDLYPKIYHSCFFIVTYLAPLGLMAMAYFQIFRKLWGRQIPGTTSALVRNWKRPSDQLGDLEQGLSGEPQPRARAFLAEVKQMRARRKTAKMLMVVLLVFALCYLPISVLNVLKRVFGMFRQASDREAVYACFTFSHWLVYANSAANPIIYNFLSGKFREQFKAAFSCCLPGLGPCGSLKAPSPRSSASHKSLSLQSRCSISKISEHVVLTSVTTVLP
The assay is described as follows: Binding affinity to OX1R (unknown origin) by calcium assay.

Assay [2] deals with Mu-type opioid receptor (Homo sapiens, UniProt P35372). The assay is described as follows: Displacement of [3H]DAMGO from human MOR expressed in HEK293 cell membrane. Format: cell membranes. For orientation: Loss of bound radioactivity is the signal in a displacement assay; it reports binding, not function.
Mu-type opioid receptor, sequence (P35372 whole entry): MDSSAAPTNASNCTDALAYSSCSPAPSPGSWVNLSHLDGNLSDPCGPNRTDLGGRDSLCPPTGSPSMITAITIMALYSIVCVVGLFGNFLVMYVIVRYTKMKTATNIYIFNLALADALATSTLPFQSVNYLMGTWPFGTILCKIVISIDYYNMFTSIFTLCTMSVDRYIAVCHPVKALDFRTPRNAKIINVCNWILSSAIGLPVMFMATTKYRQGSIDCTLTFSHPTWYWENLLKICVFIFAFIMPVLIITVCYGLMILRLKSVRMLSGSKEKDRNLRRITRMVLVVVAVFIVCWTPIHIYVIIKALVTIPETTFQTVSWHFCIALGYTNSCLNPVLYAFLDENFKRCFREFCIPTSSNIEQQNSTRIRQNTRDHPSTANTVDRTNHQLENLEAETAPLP
Assay [3] deals with Kappa-type opioid receptor (Homo sapiens, UniProt P41145). The assay is described as follows: Displacement of […] from human KOR expressed in HEK293 cell membrane. Format: cell membranes.
Kappa-type opioid receptor, sequence (P41145 whole entry): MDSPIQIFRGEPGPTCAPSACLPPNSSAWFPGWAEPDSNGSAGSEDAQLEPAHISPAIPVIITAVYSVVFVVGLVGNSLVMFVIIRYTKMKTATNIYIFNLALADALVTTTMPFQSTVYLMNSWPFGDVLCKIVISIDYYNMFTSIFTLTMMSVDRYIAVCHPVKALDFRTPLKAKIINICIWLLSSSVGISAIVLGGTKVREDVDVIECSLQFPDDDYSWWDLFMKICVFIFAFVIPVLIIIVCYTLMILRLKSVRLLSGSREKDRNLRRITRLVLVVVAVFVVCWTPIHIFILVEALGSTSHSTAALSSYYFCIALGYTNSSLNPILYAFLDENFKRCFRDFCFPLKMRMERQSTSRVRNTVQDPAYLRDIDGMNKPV
Assay [4] has as its target Delta-type opioid receptor (Homo sapiens, UniProt P41143). The assay is described as follows: Displacement of […] from human DOR expressed in HEK293 cell membrane. Format: cell membranes.
For assay [5], the species on record is Homo sapiens. The assay is described as follows: Selectivity index, ratio of Ki for displacement of [3H]DAMGO from human MOR expressed in HEK293 cell membrane to displacement of […] from human KOR expressed in HEK293 cell membrane.
Assay [6] is filed under the species Homo sapiens. The assay is described as follows: Selectivity index, ratio of Ki for displacement of […] from human DOR expressed in HEK293 cell membrane to displacement of […] from human KOR expressed in HEK293 cell membrane.

Some results are limits rather than exact numbers.

The Ki is the equilibrium dissociation constant of an inhibitor or competing ligand from its target. In general, IC50 refers to the concentration that inhibits the measured activity by half.

Delta-type opioid receptor, sequence (P41143 whole entry): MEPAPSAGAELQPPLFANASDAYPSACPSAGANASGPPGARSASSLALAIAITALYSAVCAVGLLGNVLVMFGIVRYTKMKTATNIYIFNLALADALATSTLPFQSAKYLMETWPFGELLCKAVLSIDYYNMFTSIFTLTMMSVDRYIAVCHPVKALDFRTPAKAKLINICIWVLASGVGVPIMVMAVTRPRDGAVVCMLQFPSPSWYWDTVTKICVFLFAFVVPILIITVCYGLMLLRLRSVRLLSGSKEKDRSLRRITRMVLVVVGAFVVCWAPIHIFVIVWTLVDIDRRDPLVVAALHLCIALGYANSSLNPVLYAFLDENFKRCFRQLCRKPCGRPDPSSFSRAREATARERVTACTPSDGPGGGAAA

Turning to `COc1ccc2c3c1O[C@H]1[C@H](N(C)C(=O)/C=C/c4ccoc4)CC=C4[C@@H](C2)N(CC2CC2)CC[C@]431`, in assay [1], the Ki amounted to 19 nM.

As to `COc1ccc2c3c1O[C@H]1[C@H](N(C)C(=O)/C=C/c4ccoc4)CCC4[C@@H](C2)N(CC2CC2)CC[C@@]341` (some centres undefined), in assay [1], the Ki amounted to 28.7 nM.

For the molecule `CN(C(=O)/C=C/c1ccoc1)[C@@H]1CC[C@@]2(O)[C@H]3Cc4ccc(O)c5c4[C@@]2(CN3CC2CC2)[C@H]1O5`, the Ki in assay [2], in assay [3] and in assay [4] was greater than 5000 nM in each case.

Turning to `COc1ccc2c3c1O[C@H]1[C@H](N(C)C(=O)/C=C/c4ccoc4)CCC4[C@@H](C2)N(CC2CC2)C[C@@]341` (some centres undefined), the IC50 in assay [1] was greater than 10 µM.

For the molecule `CN(C(=O)/C=C/c1ccoc1)[C@@H]1CCC2[C@H]3Cc4ccc(O)c5c4[C@@]2(CCN3CC2CC2)[C@H]1O5` (some centres undefined), the Ki was determined as 218 nM in assay [1], 0.158 nM in assay [2], 0.0272 nM in assay [3] and 9.76 nM in assay [4]. The figures for the Ratio Ki in assay [5] and in assay [6] were 5.8 and 359, respectively.

For the molecule `CN(C(=O)/C=C/c1ccoc1)[C@@H]1CC[C@@]2(O)[C@H]3Cc4ccc(O)c5c4[C@@]2(CCN3CC2CC2)[C@H]1O5` [NALFURAFINE], the inhibition constant Ki in assay [2] was 0.7 nM; in assay [4] it was 36.5 nM.

On to `CN(C(=O)/C=C/c1ccoc1)[C@@H]1CC=C2[C@H]3Cc4ccc(O)c5c4[C@@]2(CCN3CC2CC2)[C@H]1O5`, for which the Ki in assay [1] came out at 30.5 nM; in assay [2], 3.57 nM; in assay [3], 0.0356 nM; in assay [4] it was 26.3 nM. In addition, the Ratio Ki is 100 in assay [5] and 739 in assay [6].

As to `COc1ccc2c3c1O[C@H]1[C@H](N(C)C(=O)/C=C/c4ccoc4)CC=C4[C@@H](C2)N(CC2CC2)C[C@]431`, the IC50 in assay [1] is greater than 10 µM.

With `CN(C(=O)/C=C/c1ccoc1)[C@@H]1CCC2[C@H]3Cc4ccc(O)c5c4[C@@]2(CN3CC2CC2)[C@H]1O5` (some centres undefined), the IC50 in assay [1] is greater than 10 µM. Besides, the Ki was greater than 10000 nM in assay [2], 283 nM in assay [3] and greater than 10000 nM in assay [4].

With `CN(C(=O)/C=C/c1ccoc1)[C@@H]1CC=C2[C@H]3Cc4ccc(O)c5c4[C@@]2(CN3CC2CC2)[C@H]1O5`, the IC50 in assay [1] was greater than 10 µM. Also, the values for the Ki in assay [2], in assay [3] and in assay [4] were greater than 10000 nM, 1410 nM and greater than 10000 nM, respectively.
